From patent US10865203B2, “Ligands selective to alpha 6 subunit-containing GABAA receptors and their methods of use” (UWM Research Foundation, Inc., priority 2015, dated 2020)
“Also recorded” adds a separate entry of the source.

Tests used:
[1] = tested on: αxβx, αxβ3γ2 and αβδ receptors; test: Electrophysiology in Xenopus oocytes, functional screening over all tested receptors; type: cell-based, rat
Protocol: Mature female Xenopus laevis (Nasco, Fort Atkinson, Wis., USA) were anaesthetized in a bath of ice-cold 0.17% Tricain (Ethyl-m-aminobenzoat, Sigma-Aldrich, St. Louis, Mo., USA) before decapitation and transfer of the frog's ovary to ND96 medium (96 mM NaCl, 2 mM KCl, 1 mM MgCl2, 5 mM HEPES; pH 7.5). Following incubation in 1 mg/mL collagenase (Sigma-Aldrich, St. Louis, Mo., USA) for 30 min, stage 5 to 6 oocytes were singled out of the ovary and defolliculated using a platinum wire loop. Oocytes were stored and incubated at 18° C. in NDE medium (96 mM NaCl, 2 mM KCl, 1 mM MgCl2, 5 mM HEPES, 1.8 mM CaCl2; pH 7.5) that was supplemented with 100 U per mL-1 penicillin, 100 μg per mL-1 streptomycin and 2.5 mM pyruvate. Oocytes were injected with an aqueous solution of mRNA. A total of 2.5 ng of mRNA per oocyte was injected. […] Maximum currents measured in mRNA injected oocytes were in the microampere range for all receptor subtypes. […] Data were digitized using a Digidata 1322A or 1550 data acquisition system (Axon Instruments, Union City, Calif., USA), recorded using Clampex 10.5 software (Molecular Devices, Sunnyvale, Calif., USA), and analyzed using Clampfit 10.5 and GraphPad Prism 6.0 (La Jolla, Calif., USA) software. […]
For selected test compounds full dose response curves were recorded in α1-6β3γ2 receptors. […]

[2] = tested on: GABA-A receptors, including α6 GABA-ARs; test: Modulation of GABA-A receptors by constituent of Cl leaves
[3] = Microsomal stability assay, human liver microsomes; type: in vitro ADME; details: 10 μM test compound, 0.5 mg/mL protein, 37° C.
Protocol: (§1) 4 μL of 1 mM test compound at a final concentration of 10 μM dissolved in DMSO/ACN/Methanol/Ethanol was preincubated at 37° C. for 5 minutes on a digital heating shaking dry bath (Fischer scientific, Pittsburgh, Pa.) in a mixture containing 282 μL of water, 80 μL of phosphate buffer (0.5 M, pH 7.4), 20 μL of NADPH Regenerating System Solution A (BD Bioscience, San Jose, Calif.) and 4 μL of NADPH Regenerating System Solution B (BD Bioscience, San Jose, Calif.) in a total volume of 391.2 μL. Following preincubation, the reaction was initiated by addition of 8.8 μL of either human liver microsomes (BD Gentest, San Jose, Calif.), mouse liver microsomes (Life technologies, Rockford, Ill.), at a protein concentration of 0.5 mg/mL. Aliquots of 50 μL were taken at time intervals of 0 (without microsomes), 10, 20, 30, 40, 50 and 60 minutes. Each aliquot was added to 100 μL of cold acetonitrile solution containing 1 μM/2 μM internal standard. This was followed by sonication for 10 seconds and centrifugation at 10,000 rpm for 5 minutes. 100 μL of the supernatant was transferred into Spin-X HPLC filter tubes (Corning Incorporated, NY) and centrifuged at 13,000 rpm for 5 minutes. […] The ratio of the peak areas of the internal standard and test compound was calculated for every time point and the natural log of the ratio were plotted against time to determine the linear slope (k). […] All experiments were repeated three times in duplicates.

[4] = Microsomal stability assay, mouse liver microsomes; type: in vitro ADME; details: 10 μM test compound, 0.5 mg/mL protein, 37° C.
Protocol: as §1

SMILES	activity in all tested receptors [1]	modulation of GABA-A receptors [2]	% left after 1 hr. (HLM) [3] [%]	% left after 1 hr. (MLM) [4] [%]	Half-life (min) (MLM) [4]
COc1ccccc1-n1nc2c3cc(Cl)ccc3[nH]cc-2c1=O [LAU 165, 8-Chloro-2-(2-methoxyphenyl)-2H-pyrazolo[4,3-c]quinolin-3(5H)-one]	inactive in all receptors that were tested so far; also recorded: essentially inactive in all tested receptors				
COc1c(O)cc2oc(-c3ccc(O)cc3)cc(=O)c2c1O [hispidulin]		positive allosteric modulator			
[2H]C([2H])([2H])Oc1ccccc1-n1nc2c3cc(Cl)ccc3[nH]cc-2c1=O [DK-I-87-1, 8-Chloro-2-(2-methoxy-d3-phenyl)-2,5-dihydro-3H-pyrazolo[4,3-c]quinolin-3-one]	inactive in all receptors that were tested so far; also recorded: essentially inactive in all tested receptors		94.7 ± 0.07	94.91 ± 0.10	993 ± 189
